Reference: patent publication US11154536B2, “Pyrazoline-derived compound and its use in a weekly dosage regime against inflammation and pain derived from degenerative joint disease in mammals” (ECUPHAR N.V., priority 2014, dated 2021)

Columns and labels:
[1] = Example 1: blood/plasma concentrations of E-6087 in treated dogs; format: in vivo, dog
Method: (§1) According to the institutional ethics committee's recommendations, the first and third inoculations were done in the right stifle while the second and fourth inoculations were done in the left stifle. On each day of arthritis induction, the anti-inflammatory and analgesic efficacy of treatments was assessed at different time points (just before the inoculation, and 0.5, 1, 2, 3, 4, 6, 9 and 12 hours later). Two clinical signs of arthritis were assessed by using a scoring system at each time point: visual lameness (whilst standing and walking) and pain at (inoculated stifle) palpation. The median, minimal and maximal values for this parameter were determined for each group at each time point. Blood sampling was performed at different time points during the study in dogs of groups I and II in order to determine blood concentrations of E-6087.

[2] = tested on: urate crystal induced acute arthritis in the stifle (femorotibial) joint; assay: Example 1: reversible urate crystal acute arthritis model in dog, E-6087 p.o. 4 mg/kg on D0 and D12; format: in vivo
Excerpt: (§2) The experimental model used in both studies was the same and it consists in the induction of an acute arthritis through the inoculation of an urate crystal suspension in the stifle (femorotibial) joint of dogs. […] Partial or total inhibition of this reaction at a given time point after treatment administration is attributable to its pharmacological effect.
(§3) The reversible urate crystal arthritis model used in next examples has been previously described in the literature [Toutain P. L. et al. J. Vet. Pharmacol. Therap. 24, 43-55, 2001].
(§4) A sodium urate crystal suspension at a concentration of 10 mg·mL-1 was prepared as follows: • Uric acid sodium salt (Sigma) was weighed in a 100 mL graduated flask. • 0.9% NaCl solution was added to a final volume of 100 mL. • The suspension was mixed at room temperature by vortexing for approximately 5 min, by magnetic stirring for 5 min and was then sonicated for approximately 1 h. • The suspension was distributed in 1.5 mL vials and then autoclaved for 2 h at 120° C. • Finally the suspension was mixed by vortexing for 5 min, and sonicated for approximately 1 h.
(§5) The intra-articular injections were performed under general anaesthesia using Propovet multidose at a propofol dose of 6.5 mg.kg-1 by intravenous route without premedication. This induction medication was intended to result in a rapid onset anaesthesia with duration of about 10 minutes of unconsciousness and full recovery within approximately 30 minutes. For most of the dogs, Propovet multidose (half dose) was re-injected to maintain appropriate anaesthesia.
(§6) All urate crystal injections were introduced in the stifle (femorotibial) joint. The intra-articular injection was performed under aseptic conditions using a 30 mm long and 1 mm diameter sterile needle and a 2.5 mL syringe. The joint was checked for successful joint puncture, by synovial aspiration. One millilitre of urate crystal suspension was used for each intra-articular injection.
(§7) The duration of the induced inflammatory process was expected to be approximately 16 to 24 h and the average time of maximum lameness in untreated animals 2 to 3 hours after induction.
(§8) To assess the anti-inflammatory and analgesic effect of the test item, two clinical signs of arthritis were investigated: lameness and pain, respectively. Their intensity was determined using the following scoring systems:
This study was designed to determine whether the blood levels of E-6087 achieved after one single oral dose of E-6087 at 4 mg/kg in dog, do have some short and/or long-term antiinflammatory and analgesic effects. In addition, a second dose of E-6087 at 4 mg/kg was administered to evaluate the eventual effect derived from the accumulation of the molecule in blood.
The study was performed with seven male Beagle dogs randomly allocated to 3 groups.
During the study, the arthritis induction model was implemented on four occasions to each dog: • In dogs of Group I, on Days 0*, 7, 14** and 21. • In dogs of Group II, on Days 2**, 7, 14** and 21. • In dogs of Group III, on […].
as §1

[3] = tested on: urate crystal induced acute arthritis in the stifle (femorotibial) joint; assay: Example 2: urate crystal acute arthritis model in dogs, loading dose plus weekly maintenance doses of E-6087; format: in vivo, dog
Excerpt: as §2, §3, §4, §5, §6, §7, §8
This study was designed to evaluate the effectiveness of two different treatment regimes for E-6087. In both cases it was administered a loading dose, followed by a weekly maintenance dose. […]
According to the institutional ethics committee's recommendations, the first and third inoculations were performed in the right stifle while the second inoculation was performed in the left stifle. On each day of arthritis induction, the anti-inflammatory and analgesic efficacy of treatments was assessed at different time points (just before the inoculation, and 0.5, 1, 2, 3, 4, 6, 9 and 12 hours later).
Two clinical signs of arthritis were assessed by using a scoring system at each time point: visual lameness (whilst standing and walking) and pain at (inoculated stifle) palpation. A combined visual lameness score, determined as the sum of the standing and walking lameness scores, was calculated and finally used for efficacy evaluation. The median, minimal and maximal values for this parameter were determined for each group at each time point. […]

[4] = tested on: naturally occurring osteoarthritis; assay: Example 3: randomized, blinded multi-centre clinical trial in dogs with naturally occurring osteoarthritis (Clinical Sum Score); format: in vivo, dog; conditions: loading dose 4 mg/kg then 2 mg/kg weekly; for P of reduction in CSS compared to the Placebo group: tablets
Method: One study (headed as example 3) has been performed to evaluate the efficacy of E-6087 in dogs with naturally occurring osteoarthritis under real field conditions. E-6087 was administered in tablets.
For a dog to be included in the study, the following criteria must be fulfilled: • 1. Owner's consent obtained prior to the start of any study activities. • 2. Age ≥12 months. • 3. Body weight ≥5 kg. • 4. Clinical signs of osteoarthritis for one (with the exception of the spine including spinal joints, cranium, and vertebral column) or more joints for at least 3 weeks. • 5. Confirmation by radiographic evidence of the presence of osteoarthritis in the dog. […] Minimum Clinical Sum Score (CSS) ≥6. If more than one joint was affected by OA, the most severely affected joint (with the exception of the spine) was assessed subsequently for efficacy.
Once included, dogs were randomly assigned to a treatment group. A practitioner was in charge of administering either a Placebo or E-6087 under two different dosage regimes to animals, while another one was in charge of blindly evaluating the progression of clinical signs during a 42-day follow-up.
A Clinical Sum Score (CSS) was used for the assessment of pain and lameness at several time points during the follow-up, including clinical assessments in this order for posture, lameness at walk, lameness at rot and pain at palpation/manipulation. The CSS was the sum of the individual scores.
This study was designed to evaluate the effectiveness of E-6087 under real field conditions. E-6087 was administered at a loading dose of 4 mg/kg followed by weekly maintenance doses of 2 mg/kg The study was designed as a controlled, randomized, blinded, multi-centre clinical trial.
A total of 60 osteoarthritic dogs were included in the E-6087 group and 60 dogs in the Placebo group. All dogs underwent a follow-up period of 42 days, with clinical evaluations of lameness and pain on days 0, 7, 14, 28 and 42. A Clinical Sum Score (CSS) was calculated for the lameness and pain parameters at each time point.

[5] = induction on day D7 after the first 4 mg/kg p.o. dose
[6] = induction two hours after the first 4 mg/kg p.o. dose (Day 0)
[7] = inductions on D14 and D21, after the second 4 mg/kg dose on D12

NS(=O)(=O)c1ccc(N2N=C(C(F)(F)F)CC2c2ccc(F)cc2F)cc1 (racemic) [E-6087]
Plasma levels after the second dose ([1]; 4 mg/kg p.o. on D0 and D12, blood samples of treated dogs): increase in plasma levels | Blood levels 48 hours after administration ([1]; 4 mg/kg p.o., 48 hours after administration): significant blood levels | Adverse reactions related to the administration ([2]; 4 mg/kg p.o. on D0 and D12, throughout the 28-day study): No adverse reactions | Persistence of anti-inflammatory/analgesic effect ([2]; after the second dose of 4 mg/kg (12 days after the first dose)): persisted at least during nine days | Lameness assessment (control of induced lameness) [2, 5]: slightly controlled | Pain assessment (control of induced pain at palpation) [2, 5]: slightly controlled | Lameness assessment (control of induced lameness) [2, 6]: not controlled at all | Pain assessment (control of induced pain at palpation) [2, 6]: not controlled at all | Lameness assessment (control of induced lameness) [2, 7]: absolutely controlled | Pain assessment (control of induced pain at palpation) [2, 7]: absolutely controlled | Inflammatory/painful reaction after arthritis induction ([3]; Group C, treatment regimen II (8 mg/kg loading, 4 mg/kg weekly), from Day 9 onwards): very mild reaction | Inflammatory/painful reaction after arthritis induction ([3]; Group C, treatment regimen II, induction on Day 0, two hours after the 8 mg/kg loading dose): severe inflammatory/painful reaction | Inflammatory/painful reaction after arthritis induction ([3]; Groups A and B, treatment regimen I (4 mg/kg Days 0 and 1, then 4 mg/kg weekly), inductions on Days 2, 4 and 9): mild inflammatory/painful reactions | Inflammatory/painful reaction after arthritis induction ([3]; Groups A and B, treatment regimen I, inductions on Days 14, 23 and 28): none (or very mild) reactions | Adverse reactions related to the administration ([3]; Groups A, B and C, throughout the study): No adverse reactions | P of reduction in CSS compared to the Placebo group ([4]; day 28, statistically significant): < 0.05 | P of reduction in CSS compared to the Placebo group ([4]; day 42, highly significant): < 0.01 | Mean Clinical Sum Score (CSS) ([4]; dropped under the threshold between day 7 and day 14): < 6
